Legend:
AKT = experiment: Inhibition of IGF-I stimulated AKT phosphorylation (Ser473) in Rh1 cells, Western blot; type: cell-based, human; details: for Inhibition (phosphorylation of AKT at Ser 473): 5 μM, 1 hour, serum starved Rh1 cells, IGF-I 10 ng/ml 10 minutes, average of two experiments; for inhibition of cellular AKT activation: at the concentrations examined in this assay (1-5 μM)
Protocol: Cell lines and growth conditions. The human cell lines Rh1, Rh18, and Rh30 (ATCC Deposit # CRL 2061) have been described, e.g., by Hazelton et al. Cancer Res 1987;47:4501-4507 and Hosoi et al. Cancer Res. 1999;59:886-894. Rh1, Rh18 and Rh30 cells can each be grown in antibiotic free RPMI-1640 medium (available from BioWhittaker, Walkersville, Md.), supplemented with 10% fetal bovine serum (available from HyClone Laboratories, Logan, Utah) and 2 mM L-glutamine (available from BioWhittaker, Walkersville, Md.) at 37° C. in an atmosphere of 5% CO2. For serum free experiments, cells can be cultured in modified N2E (MN2E) medium (DMEM/F-12, 1:1 mixture) (Sigma, St. Louis, Mo.) supplemented with 1 μg/ml human holo transferrin, 30 nM sodium selenite, 20 nM progesterone, 100 μM putrescine, 30 nM vitamin E phosphate, and 50 μM ethanolamine. Cells in MN2E medium containing 5 μg/ml bovine fibronectin (available from Sigma, St. Louis, Mo.) are preferably plated, and allowed to attach overnight at 37° C. in a humidified, 5% CO2 atmosphere.
Cellular screening for inhibitors. Rh1, Rh18 and Rh30 cells can each be seeded at a density of 4×10^6/10-cm plate in serum-free medium for overnight attachment. The cells can then be exposed to 0.1% DMSO or to a test compound (for example, a phenoxazine or acridone compound) for one hour, then stimulated with Insulin-like growth factor-I (IGF-I) (10 ng/ml) for 10 minutes.
Western blot analysis. Cells are rapidly washed with ice-cold phosphate-buffered saline (PBS), placed on ice, and lysed in mammalian protein extraction reagent (M-PER; available from Pierce, Rockford, Ill.) containing one Complete™ mini protease inhibitor tablet (available from Boehringer Mannheim, Mannheim, Germany), 1 mM phenylmethylsulfonyl fluoride, 1 mM Na3VO4 and 1 mM NaF. Cellular debris is pelleted by centrifugation at 17,500×g for 10 minutes at 4° C. The protein concentration of the supernatants is measured by the bicinchoninic acid assay (e.g., using the BCA™ Protein Assay Kit, Pierce, Rockford, Ill., catalog number 23225 or 23227) using bovine serum albumin as the standard.
For the analysis of AKT, ERK-1/2, mTOR, p70S6 kinase, ribosomal protein S6 (rpS6 or S6), and glycogen synthase kinase 3 (GSK-3), equivalent amounts of protein can be separated on a 12% SDS-polyacrylamide gel (available from BioRad, Hercules, Calif.) by electrophoresis and subsequently transferred to a nitrocellulose membrane (also available from BioRad). After a 1 hour incubation in 1×TBS containing 0.05% Tween 20 and 5% blocking reagent (skim milk) (available from Upstate Biotechnology, Lake Placid, N.Y.) at room temperature, the wet nitrocellulose membranes are incubated with appropriate antibodies (available from Cell Signaling Technology, Beverly, Mass.): rabbit polyclonal antiserum specific for the phosphorylated Ser473 or Thr308 of AKT (dilution 1:1000); rabbit polyclonal antiserum specific for phosphorylated Thr202/Tyr204 of ERK-1/2 (dilution 1:1000); rabbit polyclonal antiserum specific for phosphorylated Ser2448 or Ser2481 of mTOR (dilution 1:1000); rabbit polyclonal antiserum specific for phosphorylated Thr389 of p70S6 kinase (dilution 1:4000); rabbit polyclonal antiserum specific for phosphorylated Ser235/236 of rpS6 (dilution 1:1000); or rabbit polyclonal antiserum specific for phosphorylated Ser21/9 of GSK-3α/β (dilution 1:1000). Horseradish peroxidase-conjugated goat anti-rabbit IgG antibody (dilution 1:10,000) can be used as the secondary antibody. Immunoreactive protein can be visualized using Renaissance chemiluminescence reagent (available from Life Science Products Inc., Boston, Mass.).
For these assays, Rh1 cells are seeded in serum-free medium for overnight attachment. The serum starved Rh1 cells are then exposed to 1-5 μM of a compound in Table I for 1 hour before stimulating with IGF-I (10 ng/ml) for 10 minutes. […]

[1] = test system: Rh1, Rh18 and/or Rh30 cells; experiment: Determination of apoptosis, cell line not specified for the result; type: cell-based, human
Excerpt: Determination of apoptosis.
Similar experiments can be performed using compounds that are relatively poor inhibitors of AKT in vitro but, preferably, are chemically similar to the phenoxazine or other compounds tested that are effective inhibitors of AKT. For example, the apoptosis of cells in response to the phenoxazine compound 12B or 20B, which are relatively poor inhibitors of AKT in vitro, can be compared to apoptosis of cells in response to the chemically similar compounds 10B and/or 15B, which are effective AKT inhibitors. In this way, a skilled practitioner can evaluate whether apoptosis observed in response to an effective AKT inhibitor (e.g., apoptosis observed in response to compound 10B or 15B) is due to a general toxic effect rather than AKT inhibition.

| Compound | Inhibition (phosphorylation of AKT at Ser 473) (AKT) | inhibition of cellular AKT activation (AKT) | induction of apoptosis [1] |
| --- | --- | --- | --- |
| FC(F)(F)c1ccc2c(c1)N(CCCN1CCOCC1)c1ccccc1O2 [Compound 5C, 10-(3′-N-morpholinopropyl)-2-trifluoromethylphenoxazine] | −−− (−−− <25% inhibition) | minimal inhibition |  |
| OCCN(CCO)CCCN1c2ccccc2Oc2ccccc21 [Compound 4A, 10-[3′-[N-bis(hydroxyethyl)amino]propyl]phenoxazine] | ++ (++ ≈ 50% inhibition) | minimal inhibition |  |
| O=C(CN1CCOCC1)N1c2ccccc2Oc2ccc(Cl)cc21 [Compound 18B, 10-(N-morpholinoacetyl)-2-chlorophenoxazine] | −−− (−−− <25% inhibition) |  |  |
| O=C(CCl)N1c2ccccc2Oc2ccc(Cl)cc21 [Compound 16B, 10-(chloroacetyl)-2-chlorophenoxazine] | −−− (−−− <25% inhibition) |  |  |
| Clc1ccc2c(c1)N(CCCCN1CCOCC1)c1ccccc1O2 [Compound 12B, 10-(4′-N-morpholinobutyl)-2-chlorophenoxazine] | −−− (−−− <25% inhibition) |  | neither the compound 12B or 20B |
| 10-(4′-N-piperidinobutyl)-2-trifluoromethylphenoxazine [Compound 13C] | +++ (+++ ≈ 75% inhibition) | minimal inhibition |  |
| OCCN(CCO)CCCCN1c2ccccc2Oc2ccc(C(F)(F)F)cc21 [Compound 11C, 10-[4′-[N-bis(hydroxyethyl)amino]butyl]-2-trifluoromethyl phenoxazine] | +++ (+++ ≈ 75% inhibition) | minimal inhibition |  |
| 10-(4′-N-pyrrolidinobutyl)-2-chlorophenoxazine [Compound 14B] | +++ (+++ ≈ 75% inhibition) |  | significant increase in the proportion of apoptotic cells |
| 10-(3′-N-piperidinopropyl)-2-chlorophenoxazine [Compound 6B] | ++ (++ ≈ 50% inhibition) |  |  |
| ClCCCN1c2ccccc2Oc2ccc(Cl)cc21 [Compound 2B, 10-(3′-chloropropyl)-2-chlorophenoxazine] | −−− (−−− <25% inhibition) |  |  |
| CCN(CC)CC(=O)N1c2ccccc2Oc2ccc(Cl)cc21 [Compound 17B, 10-[(N-diethylamino)acetyl]-2-chlorophenoxazine] | −−− (−−− <25% inhibition) |  |  |
| Clc1ccc2c(c1)N(CCCN1CCOCC1)c1ccccc1O2 [Compound 5B, 10-(3′-N-morpholinopropyl)-2-chlorophenoxazine] | −−− (−−− <25% inhibition) |  |  |
| 10-[[(β-hydroxyethyl) piperazino]acetyl]-2-chlorophenoxazine [Compound 21B] | −−− (−−− <25% inhibition) |  |  |
| OCCN(CCO)CCCN1c2ccccc2Oc2ccc(Cl)cc21 [Compound 4B, 10-[3′-[N-bis(hydroxyethyl)amino]propyl]-2-chlorophenoxazine] | ++ (++ ≈ 50% inhibition) |  |  |
| Clc1ccc2c(c1)Nc1ccccc1O2 [Compound 1B, 2-chlorophenoxazine] | + (+ ≈ 25% inhibition) |  |  |
| O=C(CN1CCCCC1)N1c2ccccc2Oc2ccc(Cl)cc21 [Compound 19B, 10-(N-piperidinoacetyl)-2-chlorophenoxazine] | −−− (−−− <25% inhibition) |  |  |
| 10-(4′-N-pyrrolidinobutyl)-phenoxazine [Compound 14A] | +++ (+++ ≈ 75% inhibition) | minimal inhibition |  |
| OCCN(CCO)CCCCN1c2ccccc2Oc2ccccc21 [Compound 11A, 10-[4′-[N-bis(hydroxyethyl)amino]-butyl]phenoxazine] | +++ (+++ ≈ 75% inhibition) | minimal inhibition |  |
| CCN(CC)CCCN1c2ccccc2Oc2ccc(Cl)cc21 [Compound 3B, 10-[3′-(N-diethylamino)-propyl]-2-chlorophenoxazine] | ++ (++ ≈ 50% inhibition) |  |  |
| 10-(3′-N-pyrrolidinopropyl)-2-chlorophenoxazine [Compound 7B] | +++ (+++ ≈ 75% inhibition) |  |  |
| 10-[4′-[(β-hydroxyethyl piperazino]butyl]-phenoxazine [Compound 15A] | +++ (+++ ≈ 75% inhibition) | minimal inhibition |  |
| c1ccc(CNCCCN2c3ccccc3Oc3ccccc32)cc1 [Compound 22A, 10-(3′-N-benzylaminopropyl)-phenoxazine] | +++ (+++ ≈ 75% inhibition) | minimal inhibition |  |
| 10-(4′-N-piperidinobutyl)-2-chlorophenoxazine [Compound 13B] | +++ (+++ ≈ 75% inhibition) |  | significant increase in the proportion of apoptotic cells |
| ClCCCCN1c2ccccc2Oc2ccc(Cl)cc21 [Compound 9B, 10-(4′-chlorobutyl)-2-chlorophenoxazine] | −−− (−−− <25% inhibition) |  |  |
| c1ccc2c(c1)Oc1ccccc1N2CCCN1CCCC1 [Compound 8A, 10-(3′-N-pyrrolidinopropyl)-phenoxazine] | ++ (++ ≈ 50% inhibition) | minimal inhibition |  |
| OCCN(CCO)CCCCN1c2ccccc2Oc2ccc(Cl)cc21 [Compound 11B, 10-[4′-[N-bis(hydroxyethyl)amino]butyl]-2-chlorophenoxazine] | +++ (+++ ≈ 75% inhibition) |  | significant increase in the proportion of apoptotic cells |

From patent US20060241108A1, “Substituted phenoxazines and acridones as inhibitors of AKT” (St. Jude Children's Research Hospital, priority 2005, published 2006)
